Data reported in paper PMC6801448, “The Antioxidant and Antiproliferative Activities of 1,2,3-Triazolyl-L-Ascorbic Acid Derivatives” (International Journal of Molecular Sciences, 2019).
Like-named read-outs stand apart in the source and are kept apart here.

Legend:
[1] = system: HCT-116 (colorectal carcinoma); experiment: MTT proliferation assay, HCT-116; type: cell-based; details: Homo sapiens, 72 h
Description: (§1) Human tumor cell lines HeLa (cervical carcinoma), SW620 (colorectal adenocarcinoma, metastatic), A549 (lung adenocarcinoma), MCF−7 (breast adenocarcinoma), CFPAC-1 (pancreatic adenocarcinoma, metastatic), HCT-116 (colorectal carcinoma), and HepG2 (hepatocellular carcinoma), and normal cell lines HFF-1 (foreskin fibroblasts) and WI-38 (immortalized human lung fibroblast), were from the US American Type Culture Collection (ATCC, Manassas, VA, USA). Cells were cultured in a liquid nutrient medium (Dulbecco’s Modified Eagle Medium, LONZA, Basel, Switzerland) supplemented with 10% fetal bovine serum (FBS, Gibco, Grand Island, NY, USA), 2 mM L-glutamine (GIBCO, Grand Island, NY, USA), 100 μg/mL penicillin, and 100 μg/mL streptomycin (LONZA, Basel, Switzerland), in an incubator (NÜVE, Ankara, Turkey), at a humid atmosphere with 5% CO2 at 37 °C. Trypsin/EDTA Solution (Lonza, Basel, Switzerland), was used for cell passaging and cell detachment.
(§2) Adherent cells were seeded on 96 well microtiter plates (Falcon, New York, NY, USA) at a seeding density of 5000 cells per well, added in 150 μL of cell suspension in a nutrient medium. 24 h after seeding, cells were treated with compound 4b–4g, 4i, 4k–4t, 4v, 7c–7g, and 7i–7q dilutions in the range of 0.01 μM to 100 μM. L-ascoric acid (Sigma Aldrich, Darmstadt, Germany) and Carboxyamidotriazole (Sigma Aldrich, Darmstadt, Germany) were used as control compounds. Incubation of the cells with the compounds were performed for 72 h in a 5% CO2, in humid atmosphere at 37 °C. After incubation, nutrient medium was removed and 40 μL of the MTT reagent ([…]-2,5-diphenyltetrazole bromide (Invitrogen, Carlsbad, CA, USA) was added to each well. 3 h after incubation, 160 μL of DMSO (VWR CHEMICALS, Radnor, PA, USA) were added to each well to dissolve the crystals of purple formazane. The absorbance was measured at 570 nm (TECAN SUNRISE Microtiter plate reader (Männedorf, Switzerland). The experimentally measured optical densities (OD) were converted to the PG (percentage of growth), using the formulas according to the protocol assumed by NIH (National Institute of Health). The IC50 values (concentration causing 50% cell growth inhibition) for each compound were calculated by regression analysis of the survival count curve of the concentrations of the tested compounds. The results were processed in Excel 2010 (Microsoft, Redmond, WA, USA).

WI-38 (lung fibroblasts) = experiment: MTT proliferation assay, WI-38; type: cell-based; details: Homo sapiens, 72 h, normal lung fibroblasts
Description: as §1, §2

[2] = system: CFPAC-1 (ductal pancreatic adenocarcinoma); experiment: MTT proliferation assay, CFPAC-1; type: cell-based; details: Homo sapiens, 72 h
Description: as §1, §2

[3] = system: HepG2 (hepatocellular carcinoma); experiment: MTT proliferation assay, HepG2; type: cell-based; details: Homo sapiens, 72 h
Description: as §1, §2

[4] = system: HeLa (cervical carcinoma); experiment: MTT proliferation assay, HeLa; type: cell-based; details: Homo sapiens, 72 h
Description: as §1, §2

[5] = system: A549 (lung adenocarcinoma); experiment: MTT proliferation assay, A549; type: cell-based; details: Homo sapiens, 72 h
Description: as §1, §2

[6] = DPPH radical scavenging assay; type: biochemical
Description: Likewise, L-ASA, the 1,2,3-triazole L-ASA derivatives with free C2-OH and C3-OH groups were expected to be potent antioxidants. Therefore, they were tested as radical scavengers by reaction with the stable free radical 2,2-diphenyl-1-picrylhydrazyl (DPPH^•).
Antioxidant capacity of selected compounds was assessed by 2,2-diphenyl-1-picrylhydrazyl assay (DPPH, Sigma Aldrich, Darmstadt, Germany), in which the antioxidant activity of compounds is measured by the reaction between a stable radical of 1,1-diphenyl-2-picylhydrazil (DPPH^•) and a selected compound according to the manufacturer recommendations. Briefly, compounds 4b–4e, 4f–4h, 4k, 4l, 4o, 4p–4s, 4t, 4v, 7c–7f, 7i–7n, 7q, 7p, and 7o were tested at 0.06, 0.12, 0.18, 0.23, 0.25, and 0.28 mM. L-ascorbic acid was used as the reference compound. Absorbance was measured 5 and 10 min after incubation of the compounds with the DPPH reagent. The reduction of DPPH with selected compounds was monitored by measuring the absorbance at a wavelength of 517 nm on the monochromator (Infinite M200 PRO, TECAN, Männedorf, Switzerland).

[7] = system: SW620 (colorectal adenocarcinoma, metastatic); experiment: MTT proliferation assay, SW620; type: cell-based; details: Homo sapiens, SW-620, 72 h
Description: as §1, §2

[8] = system: MCF-7 (breast adenocarcinoma); experiment: MTT proliferation assay, MCF-7; type: cell-based, Human; details: Homo sapiens, MCF7; 72 h, MTT
Description: as §1, §2

[9] = 5 min treatment, read-out: IC50 of DPPH• inhibition, Treatm. 5 min
[10] = 10 min treatment, read-out: IC50 of DPPH• inhibition, Treatm. 10 min

SMILES | IC50 [1] [µM] | IC50 (WI-38 (lung fibroblasts)) [µM] | IC50 [2] [µM] | IC50 [3] [µM] | IC50 [4] [µM] | IC50 [5] [µM] | IC50 [6, 9] [µM] | IC50 [6, 10] [µM] | IC50 [7] [µM] | IC50 [8] [µM] | melting point [°C]
O=C1O[C@H]([C@@H](O)Cn2cc(CSC(=S)N3CCNCC3)nn2)C(O)=C1O [Compound 4v] | > 100 | > 100 | > 100 | > 100 | > 100 | 98 | 270 ± 10 | 270 | > 100 | 37.3 | ≥ 250
O=c1[nH]cc(F)c(=O)[nH]1 [Compound 5-FU, 5-fluorouracil, reference compound] | – | 0.94 | 0.14 | 9.04 | 8.81 | 2.8 | – | – | 0.08 | 0.096 | –
O=C1O/C(=C\Cn2cc(-c3cc(C(F)(F)F)cc(C(F)(F)F)c3)nn2)C(O)=C1O [Compound 7c, 4,5-didehydro-5,6-dideoxy-(4-(3,5-di-(trifluoromethyl)phenyl)-1,2,3-triazol-1-yl)-L-ascorbic acid] | > 100 | > 100 | > 100 | > 100 | > 100 | > 100 | – | – | > 100 | > 100 | ≥ 200
O=C1O/C(=C\Cn2cc(-c3cc(F)cc(F)c3)nn2)C(O)=C1O [Compound 7d] | > 100 | > 100 | > 100 | > 100 | > 100 | > 100 | 230 | 230 | > 100 | > 100 | ≥ 200
O=C1O/C(=C\Cn2cc(-c3ccc(Br)cc3)nn2)C(O)=C1O [Compound 7e, 6-[4-(4-bromophenyl)-1,2,3-triazole-1-yl]-4,5-didehydro-5,6-dideoxy-L-ascorbic acid] | > 100 | > 100 | > 100 | > 100 | > 100 | > 100 | – | – | > 100 | > 100 | 219 to 222
Cc1ccc(-c2cn(C/C=C3\OC(=O)C(O)=C3O)nn2)cc1 [Compound 7f, 6-[4-tolyl-1,2,3-triazole-1-yl]-4,5-didehydro-5,6-dideoxy-L-ascorbic acid] | > 100 | > 100 | > 100 | > 100 | > 100 | > 100 | 100 ± 20 | 100 ± 20 | > 100 | > 100 | 188 to 192
COc1ccc(-c2cn(C/C=C3\OC(=O)C(O)=C3O)nn2)cc1 [Compound 7g, 4,5-didehydro-5,6-dideoxy-6-[4-(4-methoxyphenyl)-1,2,3-triazole-1-yl]-L-ascorbic acid] | > 100 | > 100 | > 100 | > 100 | > 100 | > 100 | > 280 | 260 | > 100 | > 100 | 198 to 199
O=C1O/C(=C\Cn2cc(-c3ccccc3O)nn2)C(O)=C1O [Compound 7i, 4,5-didehydro-5,6-dideoxy-6-[4-(2-hydroxyphenyl)-1,2,3-triazole-1-yl]-L-ascorbic acid] | > 100 | > 100 | > 100 | > 100 | > 100 | > 100 | 100 ± 50 | 100 ± 40 | > 100 | > 100 | 167 to 169
O=C1O/C(=C\Cn2cc(-c3cccc(O)c3)nn2)C(O)=C1O [Compound 7j, 4,5-didehydro-5,6-dideoxy-6-[4-(3-hydroxyphenyl)-1,2,3-triazole-1-yl]-L-ascorbic acid] | > 100 | > 100 | > 100 | > 100 | > 100 | > 100 | – | – | > 100 | > 100 | 155 to 157
CCCCCc1ccc(-c2cn(C/C=C3\OC(=O)C(O)=C3O)nn2)cc1 [Compound 7k, 4,5-didehydro-5,6-dideoxy-6-[4-(4-pentylphenyl)-1,2,3-triazole-1-yl]-L-ascorbic acid] | > 100 | > 100 | > 100 | > 100 | > 100 | > 100 | – | – | > 100 | > 100 | 230 to 232
O=C1O/C(=C\Cn2cc(C3CC3)nn2)C(O)=C1O [Compound 7l, 6-[4-cyclopropyl-1,2,3-triazole-1-yl]-4,5-didehydro-5,6-dideoxy-L-ascorbic acid] | > 100 | > 100 | > 100 | > 100 | > 100 | > 100 | 200 ± 10 | 200 | > 100 | > 100 | 176 to 178
CCCCc1cn(C/C=C2\OC(=O)C(O)=C2O)nn1 [Compound 7m, 6-[4-butyl-1,2,3-triazole-1-yl]-4,5-didehydro-5,6-dideoxy-L-ascorbic acid] | > 100 | > 100 | > 100 | > 100 | > 100 | > 100 | 200 | 190 | > 100 | > 100 | 180 to 183
